Assay results reported in patent publication US20140105837A1, “NOVEL ARYL C-XYLOSIDE COMPOUNDS, AND COSMETIC USE” (L'OREAL, priority 2008, published 2014).

How the values were obtained:
Format in all cases: cell-based
keratinocytes [1] = test: Sulfated glycosaminoglycan synthesis on keratinocytes (35S-sulfate radioactive label incorporation); details: for % glycosaminoglycan synthesis relative to the control: control = 100; for Mean value (incorporated radioactivity, sulfated GAGs): n=3
Experimental: (§1) Study of the effect of C-glycoside derivatives on sulfated glycosaminoglycan synthesis on fibroblasts and on keratinocytes:
(§2) The study is carried out by measuring the incorporation of radioactive glucosamine into the matrix neosynthesized by cultures of normal human dermal fibroblasts or by keratinocytes. The incorporation of radioactive glucosamine indicates specific neosynthesis of glycosaminoglycans via an incorporation of the acetylated form of this glucosamine.
The keratinocyte cultures are performed in keratinocyte-SFM medium sold by the company Gibco, in the presence of EGF (Epidermal Growth Factor) (0.25 ng/ml), of pituitary extract (25 μg/ml) and of gentamycin (25 μg/ml).
The fibroblasts and the keratinocytes were cultured in 96-well plates. At confluence, the culture medium was replaced with suitable culture medium containing or not containing (control) the test compound or the reference, and then the cells were incubated for 48 hours. The 35S-sulfate radioactive label was added (40 μCi final concentration) and the cells were incubated for a further 24 hours. […]
(§3) The extracellular matrix glycosaminoglycans were extracted with one volume of chaotropic buffer (50 mM Tris/HCl, 4 M guanidine, 5 mM, EDTA, pH 8.0). The sulfated GAGs were purified by ion exchange chromatography: absorption of the anionic molecules onto Q-Sepharose beads under high-stringency conditions, desorption of the molecules which are not very anionic and molecules which are moderately anionic, with a 6 M urea solution containing […] NaCl, and then washing.
(§4) The radioactivity incorporated into the highly […] molecules that have remained on the support (predominantly GAGs) was measured by liquid scintillation.
(§5) The results are evaluated relative to a control consisting of cells which have not been treated with a compound of formula (I).
A positive control (CaCl2 at 1.4 mM) known to stimulate GAG synthesis is introduced into the test carried out on keratinocytes, as a positive reference.
(§6) The results are expressed as percentage variation in glycosaminoglycan synthesis relative to the control.

[2] = system: normal human dermal fibroblasts; test: Sulfated glycosaminoglycan synthesis on fibroblasts (35S-sulfate radioactive label incorporation); details: for % glycosaminoglycan synthesis relative to the control / Mean value (incorporated radioactivity, sulfated GAGs): fibroblasts; for % glycosaminoglycan synthesis relative to the control: control = 100; for Mean value (incorporated radioactivity, sulfated GAGs): n=3; for Effectiveness for increasing sulfated GAG synthesis (in words): summary of the tests on fibroblasts and keratinocytes
Experimental: as §1, §2
The fibroblast cultures are performed according to conventional cell culture methods, namely in DMEM medium sold by the company Gibco, in the presence of L-glutamine (2 mM), of penicillin (50 IU/ml) and of 10% of fetal calf serum (Gibco).
The fibroblasts and the keratinocytes were cultured in 96-well plates. At confluence, the culture medium was replaced with suitable culture medium containing or not containing (control) the test compound or the reference, and then the cells were incubated for 48 hours. The 35S-sulfate radioactive label was added (40 μCi final concentration) and the cells were incubated for a further 24 hours. All the conditions were carried out 3 times.
as §3, §4, §5
A positive control (TGFβ at 10 ng/ml) known to stimulate GAG synthesis is introduced into the test carried out on fibroblasts, as a positive reference.
as §6

[3] = system: normal human dermal fibroblasts; test: as above; details: other experimental plan, n=2
keratinocytes [4] = test: Sulfated glycosaminoglycan synthesis on keratinocytes (35S-sulfate radioactive label incorporation); details: other experimental plan, n=2
[5] = 0.1 mM, other experimental plan

## [Ca+2].[Cl-].[Cl-] [CaCl2, reference compound]
Keratinocytes [1]; CaCl2 at 1.4 mM
  % glycosaminoglycan synthesis relative to the control: 117%
  Mean value (incorporated radioactivity, sulfated GAGs): 5273 cpm

## COc1cc(CCC(O)CC2OC[C@@H](O)[C@H](O)[C@H]2O)ccc1O (stereo partly drawn) [Compound 1, 1-(α,β)-D-xyopyranosyl-4-(4-hydroxy-3-methoxyphenyl)butan-2-ol]
[2]; 40 μM
  % glycosaminoglycan synthesis relative to the control: 351%
  Mean value (incorporated radioactivity, sulfated GAGs): 8130 cpm
[2]; 120 μM
  % glycosaminoglycan synthesis relative to the control: 657%
  Mean value (incorporated radioactivity, sulfated GAGs): 15318 cpm
[2]
  Effectiveness for increasing sulfated GAG synthesis (in words): highly effective
[2]; listed as example 2
  Effectiveness for increasing sulfated GAG synthesis (in words): very effective
Keratinocytes [1]; 0.37 mM
  % glycosaminoglycan synthesis relative to the control: 707%
  Mean value (incorporated radioactivity, sulfated GAGs): 31999 cpm
Keratinocytes [1]; 1.1 mM
  % glycosaminoglycan synthesis relative to the control: 813%
  Mean value (incorporated radioactivity, sulfated GAGs): 36795 cpm

## Oc1ccccc1CCC(O)CC1OC[C@@H](O)[C@H](O)[C@H]1O (stereo partly drawn) [Compound 8, 1-(α,β)-D-xylopyranosyl-4-(2-hydroxyphenyl)butan-2-ol]
[2]; [5]
  % glycosaminoglycan synthesis relative to the control: 117%
[2]; 1 mM, other experimental plan
  % glycosaminoglycan synthesis relative to the control: 412%
[2]
  Effectiveness for increasing sulfated GAG synthesis (in words): highly effective
[3]; 0.1 mM
  Mean value (incorporated radioactivity, sulfated GAGs): 2938 cpm
[3]; 1 mM
  Mean value (incorporated radioactivity, sulfated GAGs): 10371 cpm
Keratinocytes [4]; 0.1 mM
  Mean value (incorporated radioactivity, sulfated GAGs): 40552 cpm
Keratinocytes [4]; 1 mM
  Mean value (incorporated radioactivity, sulfated GAGs): 85456 cpm
Keratinocytes [1]; [5]
  % glycosaminoglycan synthesis relative to the control: 316%
Keratinocytes [1]; 1 mM, other experimental plan
  % glycosaminoglycan synthesis relative to the control: 665%

## OC(CCc1ccccc1)CC1OC[C@@H](O)[C@H](O)[C@H]1O (stereo partly drawn) [Compound 9, 1-(α,β)-D-xylopyranosyl-4-phenylbutan-2-ol]
[2]; [5]
  % glycosaminoglycan synthesis relative to the control: 430%
[2]; 1 mM, other experimental plan
  % glycosaminoglycan synthesis relative to the control: 938%
[2]
  Effectiveness for increasing sulfated GAG synthesis (in words): highly effective
[3]; 0.1 mM
  Mean value (incorporated radioactivity, sulfated GAGs): 10838 cpm
[3]; 1 mM
  Mean value (incorporated radioactivity, sulfated GAGs): 23620 cpm
Keratinocytes [4]; 0.1 μM
  Mean value (incorporated radioactivity, sulfated GAGs): 24106 cpm
Keratinocytes [4]; 1 μM
  Mean value (incorporated radioactivity, sulfated GAGs): 99041 cpm
Keratinocytes [1]; 0.1 μM, other experimental plan
  % glycosaminoglycan synthesis relative to the control: 563%
Keratinocytes [1]; 1 μM, other experimental plan
  % glycosaminoglycan synthesis relative to the control: 547%

## TGFβ: positive control known to stimulate GAG synthesis, used at 10 ng/ml on fibroblasts [reference compound]
[2]; TGFβ at 10 ng/ml
  % glycosaminoglycan synthesis relative to the control: 174%
  Mean value (incorporated radioactivity, sulfated GAGs): 4062 cpm
